Measured values from patent publication US12624003B2, “Carboxylic acid containing indanyl compounds for the treatment of neurodegenerative diseases” (Celgene Corporation, priority 2020, dated 2026).

Target: T1, S1P5 (Homo sapiens, UniProt Q9H228)
T1 construct: expressed in transfected cells; host or cells: CHO cells (membranes)
Assay: [35S]-GTPγS functional binding assay on CHO-S1P5 membranes
Assay type: biochemical
Conditions: membranes of CHO cells expressing recombinant S1P5 receptors; measure of S1P5 agonism
Method: CHO cells expressing recombinant S1P5 receptors were cultured in 500 cm^2 culture trays and, once confluent, rinsed and detached with cell-lifting buffer (10 mM HEPES, 154 mM NaCl, 6.85 mM EDTA, pH 7.4). Cells were then pelleted by centrifugation, resuspended, and homogenized in membrane preparation buffer (10 mM HEPES and 10 mM EDTA, pH 7.4) using a Polytron PT 1200E homogenizer (Kinematica, Luzern, Switzerland). Cellular proteins were pelleted by centrifugation at 48,000×g at 4° C. for 30 minutes. The resulting supernatant was discarded, and the pellet was re-suspended again in membrane preparation buffer, homogenized for a second time, and then centrifuged again as described above. The final cellular protein pellet was suspended in ice cold resuspension buffer (10 mM HEPES and 0.1 mM EDTA, pH 7.4), divided into aliquots, and stored at −80° C. until use.
Functional binding assays for [^35S]-GTPγS were performed in 96-well non-binding surface plates with a final volume of 200 μL. The test compounds were serially diluted in DMSO and added to assay plates using a Tecan D300E digital printer with a total volume of 0.4 μL. The control sphingosine-1-phosphate (S1P) was prepared separately by preparing a 400 μM stock solution from a 100 nmol pellet of SIP in 10 mM Na2CO3 with 2% s-cyclodextrin. The serial dilution of S1P was done using complete assay buffer (20 mM HEPES, 10 mM MgCl2, 100 mM NaCl, 1 mM EDTA, 0.1% fatty acid free bovine serum albumin (BSA), and 30 μg/mL saponin, pH 7.4) and transferred to wells already containing 0.4 μL DMSO. All the wells were then loaded to a total volume of 40 μL of complete assay buffer, except the non-specific binding (NSB) wells. For NSB wells, 40 μL/well of 50 μM GTPγS (Sigma Aldrich, cat #G8634, St. Louis, MO) was added to wells containing 0.4 μL of DMSO. The assay was started by the addition of 120 μL/well of CHO-S1P receptor membrane solution containing 40 μg/mL of membrane protein, 16.67 μM guanosine diphosphate (GDP; Sigma Aldrich, cat #G7127, St. Louis, MO), and 2.5 mg/mL of WGA PVT SPA beads in complete buffer. Assay plates were then sealed and incubated at room temperature with gentle agitation for 30 minutes. Next, 40 μL/well of 1 nM of [^35S]-GTPγS (PerkinElmer, cat #NEG030X250UC, Waltham, MA) in basic assay buffer (20 mM HEPES, 10 mM MgCl2, 100 mM NaCl, and 1 mM EDTA, pH 7.4) was added to the assay plates to yield a final concentration of […] and the plates were further incubated for 40 minutes at room temperature with gentle agitation. The assay was terminated by centrifugation of the plates at 1000 rpm for 3 minutes using an Eppendorf 5810R centrifuge (Eppendorf, Hamburg, Germany) and G protein bound radioactivity was quantitated using a MicroBeta2 microplate scintillation counter (PerkinElmer, Waltham, MA). As G protein bound radioactivity directly correlates to receptor activation and coupling to the G protein, this assay is a measure of S1P5 agonism.

T1 sequence (Q9H228 whole entry, species assumed): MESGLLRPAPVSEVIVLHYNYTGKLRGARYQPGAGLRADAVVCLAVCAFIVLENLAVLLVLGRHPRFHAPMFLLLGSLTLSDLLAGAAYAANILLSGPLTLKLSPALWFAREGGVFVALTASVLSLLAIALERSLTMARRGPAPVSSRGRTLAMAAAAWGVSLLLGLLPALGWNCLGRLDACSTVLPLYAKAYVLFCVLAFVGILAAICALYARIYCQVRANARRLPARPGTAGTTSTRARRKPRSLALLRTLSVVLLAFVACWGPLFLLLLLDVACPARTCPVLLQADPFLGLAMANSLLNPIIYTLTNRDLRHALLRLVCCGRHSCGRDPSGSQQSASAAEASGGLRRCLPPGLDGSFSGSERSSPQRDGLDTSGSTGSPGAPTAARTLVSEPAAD

Row | EC50 [µM] | Compound
1 | 0.01 to 0.1 | O=C(O)C1CC2(C1)CN(C1CCc3cc(CCc4c(Cl)cccc4Cl)ccc31)C2 (centres unmarked) [Compound 29, 2-(5-(2,6-dichlorophenethyl)-2,3-dihydro-1H-inden-1-yl)-2-azaspiro[3.3]heptane-6-carboxylic acid]
2 | ≤ 0.01 | O=C(O)[C@@H]1CCN(C2CCc3cc(C#Cc4cccc(F)c4)ccc32)C1 (single isomer, unassigned) [Compound 14a]
3 | 0.01 to 0.1 | O=C(O)[C@H]1CCN(C2CCc3cc(-c4ccc(C5CC5)c(F)c4)ccc32)C1 (single isomer, unassigned) [Compound 37b]
4 | 0.01 to 0.1 | O=C(O)C1CC2(C1)CN(C1CCc3cc(-c4ccc(C5CC5)c(Cl)c4)ccc31)C2 (centres unmarked) [Compound 39, 2-(5-(3-chloro-4-cyclopropylphenyl)-2,3-dihydro-1H-inden-1-yl)-2-azaspiro[3.3]heptane-6-carboxylic acid]
5 | 0.1 to 1 | O=C(O)C1CCN(C2CCc3cc(-c4ccc(C5CC5)c(Cl)c4)ccc32)CC1 (single isomer, unassigned) [Compound 32a, 1-(5-(3-chloro-4-cyclopropylphenyl)-2,3-dihydro-1H-inden-1-yl)piperidine-4-carboxylic acid]
6 | ≤ 0.01 | O=C(O)C1CCN(C2CCc3cc(C#Cc4cccc(F)c4)ccc32)CC1 (single isomer, unassigned) [Compound 4b, 1-(5-((3-fluorophenyl)ethynyl)-2,3-dihydro-1H-inden-1-yl)piperidine-4-carboxylic acid]
7 | 0.01 to 0.1 | O=C(O)[C@H]1CCN(C2CCc3cc(C#Cc4cccc(F)c4)ccc32)C1 (single isomer, unassigned) [Compound 13b]
8 | ≤ 0.01 | O=C(O)C1CN(C2CCc3cc(C#Cc4c(Cl)cccc4Cl)ccc32)C1 (single isomer, unassigned) [Compound 18, 1-(5-((2,6-dichlorophenyl)ethynyl)-2,3-dihydro-1H-inden-1-yl)azetidine-3-carboxylic acid]
9 | 0.01 to 0.1 | O=C(O)C1CCN(C2CCc3cc(CCc4c(F)cccc4F)ccc32)CC1 (single isomer, unassigned) [Compound 28b, 1-(5-(2,6-difluorophenethyl)-2,3-dihydro-1H-inden-1-yl)piperidine-4-carboxylic acid]
10 | ≤ 0.01 | O=C(O)C1CN(C2CCc3cc(C#Cc4cccc(F)c4)ccc32)C1 (single isomer, unassigned) [Compound 19, 1-(5-((3-fluorophenyl)ethynyl)-2,3-dihydro-1H-inden-1-yl)azetidine-3-carboxylic acid]
11 | 0.01 to 0.1 | O=C(Cc1ccc2c(c1)CCC2N1CCC(C(=O)O)CC1)c1c(Cl)cccc1Cl (single isomer, unassigned) [Compound 24, 1-(5-(2-(2,6-dichlorophenyl)-2-oxoethyl)-2,3-dihydro-1H-inden-1-yl)piperidine-4-carboxylic acid]
12 | 0.1 to 1 | O=C(O)[C@H]1CCN(C2CCc3cc(-c4ccc(C5CC5)c(F)c4)ccc32)C1 (single isomer, unassigned) [Compound 37a]
13 | 0.1 to 1 | O=C(O)C1CCN(C2CCc3cc(-c4ccc5c(c4)OCC5)ccc32)CC1 (single isomer, unassigned) [Compound 41, 1-(5-(2,3-dihydrobenzofuran-6-yl)-2,3-dihydro-1H-inden-1-yl)piperidine-4-carboxylic acid]
14 | ≤ 0.01 | O=C(O)[C@@H]1CCN(C2CCc3cc(-c4ccc(C5CC5)c(Cl)c4)ccc32)C1 (single isomer, unassigned) [Compound 34b]
15 | 0.1 to 1 | O=C(O)[C@@H]1CCCCN1C1CCc2cc(C#Cc3cccc(F)c3)ccc21 (single isomer, unassigned) [Compound 8a]
16 | ≤ 0.01 | O=C(O)C1CCN(C2CCc3cc(CCc4c(Cl)cccc4Cl)ccc32)CC1 (single isomer, unassigned) [Compound 22b, 1-(5-(2,6-dichlorophenethyl)-2,3-dihydro-1H-inden-1-yl)piperidine-4-carboxylic acid]

Row | EC50 [µM] | Compound
17 | 0.1 to 1 | O=C(O)C1CCN(C2CCc3cc(CCc4c(F)cccc4F)ccc32)CC1 (single isomer, unassigned) [Compound 28a, 1-(5-(2,6-difluorophenethyl)-2,3-dihydro-1H-inden-1-yl)piperidine-4-carboxylic acid]
18 | ≤ 0.01 | O=C(O)C1CCN(C2CCc3cc(C#Cc4c(Cl)cccc4Cl)ccc32)CC1 (centres unmarked) [Compound 1, 1-(5-((2,6-dichlorophenyl)ethynyl)-2,3-dihydro-1H-inden-1-yl)piperidine-4-carboxylic acid]
19 | ≤ 0.01 | O=C(O)C1CN(C2CCc3cc(-c4ccc(C5CC5)c(Cl)c4)ccc32)C1 (single isomer, unassigned) [Compound 30b, 1-(5-(3-chloro-4-cyclopropylphenyl)-2,3-dihydro-1H-inden-1-yl)azetidine-3-carboxylic acid]
20 | 0.01 to 0.1 | O=C(O)C1CCCN(C2CCc3cc(-c4ccc(C5CC5)c(Cl)c4)ccc32)C1 (centres unmarked) [Compound 38, 1-(5-(3-chloro-4-cyclopropylphenyl)-2,3-dihydro-1H-inden-1-yl)piperidine-3-carboxylic acid]
21 | 0.1 to 1 | O=C(O)C1CCN(C2CCc3cc(CCc4cccc(Cl)c4)ccc32)CC1 (single isomer, unassigned) [Compound 27b, 1-(5-(3-chlorophenethyl)-2,3-dihydro-1H-inden-1-yl)piperidine-4-carboxylic acid]
22 | 0.01 to 0.1 | O=C(O)[C@@H]1CCCN(C2CCc3cc(C#Cc4cccc(F)c4)ccc32)C1 (single isomer, unassigned) [Compound 7a]
23 | 0.01 to 0.1 | O=C(O)C1CCN(C2CCc3cc(C#Cc4ccccc4F)ccc32)CC12CC2 (centres unmarked) [Compound 11, 5-(5-((2-fluorophenyl)ethynyl)-2,3-dihydro-1H-inden-1-yl)-5-azaspiro[2.5]octane-8-carboxylic acid]
24 | 0.01 to 0.1 | O=C(O)[C@H]1CCN(C2CCc3cc(-c4ccc(C5CC5)c(Cl)c4)ccc32)C1 (single isomer, unassigned) [Compound 35b]
25 | 0.01 to 0.1 | O=C(O)[C@@H]1[C@@H]2CN(C3CCc4cc(C#Cc5cccc(F)c5)ccc43)C[C@@H]21 (stereo partly drawn) [Compound 17, (1R,5S,6s)-3-(5-((3-fluorophenyl)ethynyl)-2,3-dihydro-1H-inden-1-yl)-3-azabicyclo[3.1.0]-hexane-6-carboxylic acid]
26 | ≤ 0.01 | CC(C)c1ccc(-c2ccc3c(c2)CCC3N2CCC(C(=O)O)CC2)cc1Cl (centres unmarked) [Compound 33, 1-(5-(3-chloro-4-isopropylphenyl)-2,3-dihydro-1H-inden-1-yl)piperidine-4-carboxylic acid]
27 | 1 to 10 | O=C(O)C1CCN(C2CCc3cc(-c4ccc5ocnc5c4)ccc32)CC1 (single isomer, unassigned) [Compound 42, 1-(5-(benzo[d]oxazol-5-yl)-2,3-dihydro-1H-inden-1-yl)piperidine-4-carboxylic acid]
28 | ≤ 0.01 | O=C(O)C1=CCN(C2CCc3cc(C#Cc4c(Cl)cccc4Cl)ccc32)CC1 (centres unmarked) [Compound 2, 1-(5-((2,6-dichlorophenyl)ethynyl)-2,3-dihydro-1H-inden-1-yl)-1,2,3,6-tetrahydropyridine-4-carboxylic acid]
29 | ≤ 0.01 | O=C(O)[C@@H]1CCN(C2CCc3cc(C#Cc4cccc(F)c4)ccc32)C1 (single isomer, unassigned) [Compound 14b]
30 | 0.1 to 1 | O=C(O)C1CCN(C2CCc3cc(CCc4ccccc4Cl)ccc32)CC1 (single isomer, unassigned) [Compound 25b, 1-(5-(2-chlorophenethyl)-2,3-dihydro-1H-inden-1-yl)piperidine-4-carboxylic acid]
31 | ≤ 0.01 | O=C(O)C1CN(C2CCc3cc(-c4ccc(C5CC5)c(Cl)c4)ccc32)C1 (single isomer, unassigned) [Compound 30a, 1-(5-(3-chloro-4-cyclopropylphenyl)-2,3-dihydro-1H-inden-1-yl)azetidine-3-carboxylic acid]
32 | ≤ 0.01 | O=C(O)C1CCN(C2CCc3cc(CCc4c(Cl)cccc4Cl)ccc32)CC1 (single isomer, unassigned) [Compound 22a, 1-(5-(2,6-dichlorophenethyl)-2,3-dihydro-1H-inden-1-yl)piperidine-4-carboxylic acid]
